Assays:
Assay type in all cases: functional, cell-based
[1] = tested on: Calu-1; test: SANGER: Inhibition of human Calu-1 cell growth in a cell viability assay.
[2] = tested on: DMS-53; test: cells; settings: Homo sapiens;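 also: cell viability assay measuring growth inhibition of human DMS-53 cells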
Description: SANGER: Inhibition of human DMS-53 cell growth in a cell viability assay.

[3] = tested on: EFE-184; test: cells; settings: Homo sapiens
Description: SANGER: Inhibition of human EFE-184 cell growth in a cell viability assay.

[4] = tested on: HCC1143; test: cells; settings: Homo sapiens;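 also: growth inhibition of human HCC1143 cells, read out with a cell viability assay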
Description: SANGER: Inhibition of human HCC1143 cell growth in a cell viability assay.

[5] = tested on: IPC-298; test: SANGER: Inhibition of human IPC-298 cell growth in a cell viability assay.
[6] = tested on: NCI-H1618; test: cells; settings: Homo sapiens;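 also: growth inhibition of human NCI-H1618 cells, measured by a cell viability assay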
Description: SANGER: Inhibition of human NCI-H1618 cell growth in a cell viability assay.

[7] = tested on: NCI-H2227; test: cells; settings: Homo sapiens;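 also: growth inhibition of the human cell line, read out with a cell viability assay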
Description: SANGER: Inhibition of human NCI-H2227 cell growth in a cell viability assay.

[8] = tested on: NCI-H838; test: cells; settings: Homo sapiens;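 also: growth inhibition of human NCI-H838 cells, read out by a cell viability assay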
Description: SANGER: Inhibition of human NCI-H838 cell growth in a cell viability assay.

[9] = tested on: PLC-PRF-5; test: cells; settings: Homo sapiens;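 also: growth inhibition of human PLC-PRF-5 cells, read out with a viability assay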
Description: SANGER: Inhibition of human PLC-PRF-5 cell growth in a cell viability assay.

[10] = tested on: RT-4; test: SANGER: Inhibition of human RT4 cell growth in a cell viability assay.
[11] = tested on: SNG-M; test: cells; settings: Homo sapiens
Description: SANGER: Inhibition of human SNG-M cell growth in a cell viability assay.

[12] = tested on: SNU-475; test: cells; settings: Homo sapiens
Description: SANGER: Inhibition of human SNU-475 cell growth in a cell viability assay.

[13] = tested on: C-4-II; test: SANGER: Inhibition of human C-4-II cell growth in a cell viability assay.
[14] = tested on: TT; test: cells; settings: Homo sapiens
Description: SANGER: Inhibition of human TT cell growth in a cell viability assay.

[15] = tested on: COLO 205; test: cells; settings: Homo sapiens
Description: SANGER: Inhibition of human COLO-205 cell growth in a cell viability assay.

[16] = tested on: CP67-MEL; test: SANGER: Inhibition of human CP67-MEL cell growth in a cell viability assay.
[17] = tested on: EW-12; test: SANGER: Inhibition of human EW-12 cell growth in a cell viability assay.; settings: Homo sapiens, EW-12
[18] = tested on: NCI-H128; test: SANGER: Inhibition of human NCI-H128 cell growth in a cell viability assay.; settings: Homo sapiens, NCI-H128
[19] = tested on: NCI-H2107; test: SANGER: Inhibition of human NCI-H2107 cell growth in a cell viability assay.
[20] = tested on: SKM-1; test: SANGER: Inhibition of human SKM-1 cell growth in a cell viability assay.; settings: Homo sapiens, SKM-1
[21] = tested on: ECC10; test: cells; settings: Homo sapiens;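 also: growth inhibition of ECC10 cells, read out by a cell viability assay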
Description: SANGER: Inhibition of human ECC10 cell growth in a cell viability assay.

[22] = tested on: EPLC-272H; test: cells; settings: Homo sapiens
Description: SANGER: Inhibition of human EPLC-272H cell growth in a cell viability assay.

[23] = tested on: H-EMC-SS; test: cells; settings: Homo sapiens
Description: SANGER: Inhibition of human H-EMC-SS cell growth in a cell viability assay.

[24] = tested on: H9; test: cells; settings: Homo sapiens
Description: SANGER: Inhibition of human H9 cell growth in a cell viability assay.

[25] = tested on: LU-135; test: cells; settings: Homo sapiens
Description: SANGER: Inhibition of human LU-135 cell growth in a cell viability assay.

[26] = tested on: NCI-H1666; test: cells; settings: Homo sapiens;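 also: growth inhibition of the cell line, read out with a cell viability assay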
Description: SANGER: Inhibition of human NCI-H1666 cell growth in a cell viability assay.

[27] = tested on: NCI-H2029; test: cells; settings: Homo sapiens;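 also: Read-out is a viability assay on the cultured cells, and IC50 is the concentration that suppresses cell growth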
Description: SANGER: Inhibition of human NCI-H2029 cell growth in a cell viability assay.

[28] = tested on: OC-314; test: cells; settings: Homo sapiens
Description: SANGER: Inhibition of human OC-314 cell growth in a cell viability assay.

[29] = tested on: RH-18; test: cells; settings: Homo sapiens, Rh18;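 also: growth inhibition of human RH-18 cells, read out with a cell viability assay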
Description: SANGER: Inhibition of human RH-18 cell growth in a cell viability assay.

[30] = tested on: SW 1116; test: cells; settings: Homo sapiens;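 also: growth inhibition of SW1116 cells, read out with a cell viability assay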
Description: SANGER: Inhibition of human SW1116 cell growth in a cell viability assay.

[31] = tested on: SW900; test: cells; settings: Homo sapiens;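 also: IC50 is the concentration that inhibits SW900 cell growth, measured by a cell viability assay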
Description: SANGER: Inhibition of human SW900 cell growth in a cell viability assay.

[32] = tested on: BALL-1; test: cells; settings: Homo sapiens;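 also: growth inhibition of BALL-1 cells, read out with a cell viability assay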
Description: SANGER: Inhibition of human BALL-1 cell growth in a cell viability assay.

[33] = tested on: BT-549; test: cells; settings: Homo sapiens
Description: SANGER: Inhibition of human BT-549 cell growth in a cell viability assay.

[34] = tested on: TI-73; test: cells; settings: Homo sapiens;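 also: cell viability assay measuring how much compounds suppress growth of the cultured cell line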
Description: SANGER: Inhibition of human TI-73 cell growth in a cell viability assay.

[35] = tested on: ECC12; test: cells; settings: Homo sapiens
Description: SANGER: Inhibition of human ECC12 cell growth in a cell viability assay.

[36] = tested on: TC-YIK; test: SANGER: Inhibition of human TC-YIK cell growth in a cell viability assay.

SMILES | IC50 [7] [nM] | IC50 [16] [nM] | IC50 [17] [nM] | IC50 [18] [nM] | IC50 [19] [nM] | IC50 [20] [nM] | IC50 [22] [nM] | IC50 [23] [nM] | IC50 [25] [nM] | IC50 [26] [nM] | IC50 [27] [nM] | IC50 [28] [nM] | IC50 [29] [nM] | IC50 [30] [nM] | IC50 [31] [nM] | IC50 [32] [nM] | IC50 [33] [nM] | IC50 [34] [nM] | other results
COc1ccc(-c2cc3nccn3c(Nc3ncccc3C(N)=O)n2)cc1OC | > 8000 |  |  |  |  |  |  |  |  |  |  |  |  |  |  |  |  |  | IC50 [1]: > 8000 nM; IC50 [2]: > 8000 nM; IC50 [3]: > 8000 nM; IC50 [4]: > 8000 nM; IC50 [5]: > 8000 nM; IC50 [6]: > 8000 nM; IC50 [8]: > 8000 nM; IC50 [9]: > 8000 nM; IC50 [10]: 6560 nM; IC50 [11]: 2260 nM; IC50 [12]: > 8000 nM; IC50 [13]: > 8000 nM; IC50 [14]: > 8000 nM; IC50 [15]: 2350 nM
C=CC(=O)N1CCCC(Nc2nc(Nc3ccc(N(C)C(=O)CC)cc3)nc3[nH]cnc23)C1 (stereo unspecified) |  | > 10200 | > 10200 | > 10200 | > 10200 | > 10200 |  |  |  |  |  |  |  |  |  |  |  |  | 
COc1ccc(N(C(=O)Oc2c(C)cccc2C)c2ccnc(Nc3ccc(N4CCN(C)CC4)cc3)n2)c(OC)c1 |  | > 5120 | > 5120 | > 5120 | > 5120 | > 5120 |  |  |  |  |  |  |  |  |  |  |  |  | 
OC[C@H](Cc1ccccc1)Nc1nc(Oc2ccc3c(c2)CCC3)nc2c1ncn2Cc1ccc(-c2ccccc2)cc1 | > 10200 |  |  |  |  |  |  |  |  |  |  |  |  |  |  |  |  |  | IC50 [1]: 2610 nM; IC50 [2]: > 10200 nM; IC50 [3]: > 10200 nM; IC50 [4]: > 10200 nM; IC50 [5]: > 10200 nM; IC50 [6]: > 10200 nM; IC50 [8]: > 10200 nM; IC50 [9]: > 10200 nM; IC50 [10]: > 10200 nM; IC50 [11]: 5930 nM; IC50 [12]: > 10200 nM; IC50 [13]: > 10200 nM; IC50 [14]: > 10200 nM; IC50 [15]: 2290 nM
O=C1NC(=O)c2c1c(-c1ccccc1Cl)cc1[nH]c3ccc(O)cc3c21 |  |  |  |  |  |  | > 2000 | > 2000 | > 2000 | > 2000 | > 2000 | > 2000 | > 2000 | > 2000 | > 2000 | > 2000 | > 2000 | > 2000 | IC50 [21]: 1410 nM; IC50 [24]: 832 nM
Cc1cc(N2CCOCC2)cc2[nH]c(-c3c(NC[C@@H](O)c4cccc(Cl)c4)cc[nH]c3=O)nc12 |  | 898 | > 5120 | > 5120 | > 5120 | > 5120 |  |  |  |  |  |  |  |  |  |  |  |  | 
NC(=O)c1cccc(-c2cc(Nc3ccc(OC(F)(F)F)cc3)ncn2)c1 |  | > 1280 | > 1280 | > 1280 | > 1280 | > 1280 |  |  |  |  |  |  |  |  |  |  |  |  | 
NC(=O)Nc1cc(-c2cccc(F)c2)sc1C(=O)N[C@H]1CCCNC1 [AZD-7762] |  |  |  |  |  |  | 221 | 284 | > 2000 | > 2000 | > 2000 | 78.1 | > 2000 | > 2000 | 1120 | > 2000 | 1270 | 209 | IC50 [21]: > 2000 nM; IC50 [24]: 122 nM
CC(C)C[C@H](NC(=O)[C@H](Cc1ccccc1)NC(=O)c1cnccn1)B(O)O [BORTEZOMIB] | > 20 |  | > 20 | > 20 |  | > 20 |  |  |  |  |  |  |  |  |  |  |  |  | IC50 [35]: 1.37 nM; IC50 [36]: > 20 nM
O=C(NCCCNc1nc(Nc2cccc(NC(=O)N3CCCC3)c2)ncc1I)c1cccs1 [BX-795] |  |  |  |  |  |  | > 5000 | > 5000 | > 5000 | > 5000 | > 5000 | 3050 | > 5000 | > 5000 | > 5000 | > 5000 | 4450 | 2110 | 
